This note sets out measurements from patent US8557821B2 (priority 2009, dated 2013).

For one data set, the system named is Phytophthora infestans. Nature of the data set: whole plant or invertebrate. As to conditions: in Solanum lycopersicum, foliar, read-out: disease control. The data set is classed as in vivo.
In the next data set the test system is Plasmopara viticola. Nature of the data set: Plasmopara viticola/Grape/Leaf Disc Preventative (Grape Downy Mildew). It counts as in vivo. Particulars: foliar, grape vine leaf disks, inoculated 1 day after application, assessed 6-8 days after application, read-out: disease control. The protocol: Plasmopara viticola/Grape/Leaf Disc Preventative (Grape Downy Mildew)
Grape vine leaf disks are placed on water agar in multiwell plates (24-well format) and sprayed with the formulated test compound diluted in water. The leaf disks are inoculated with a spore suspension of the fungus 1 day after application. The inoculated leaf disks are incubated at 19° C. and 80% rh under a light regime of 12 h light/12 h darkness in a climate cabinet and the activity of a compound is assessed as percent disease control compared to untreated when an appropriate level of disease damage appears in untreated check leaf disks (6-8 days after application).

Values joined by “and” are separate entries in the source; they are usually repeats but may differ in a detail not shown here. Identical values can stand only once.

As for `Cc1cc(C(F)(F)F)nn1CC(=O)N1CCC(c2nc(NC(=O)[C@@H]3CCCc4ccccc43)cs2)CC1` [I.g.001, (R)-1,2,3,4-tetrahydro-naphthalene-1-carboxylic acid (2-{1-[2-(5-methyl-3-trifluoromethyl-pyrazol-1-yl)-acetyl]-piperidin-4-yl}-thiazol-4-yl)amide], the melting point – broadly, the temperature of the solid-liquid transition – was determined as 175 °C. For the same molecule, the pest or weed control at 200 ppm with Phytophthora infestans is not below 80%. Further, the pest or weed control at 200 ppm in the data set on Plasmopara viticola is not below 80%.
Regarding `Cc1cc(C(F)(F)F)nn1CC(=O)N1CCC(c2nc(NC(=O)C3CCCc4ccccc43)cs2)CC1` (centres unmarked) [I.g.011, 1,2,3,4-tetrahydro-naphthalene-1-carboxylic acid (2-{1-[2-(5-methyl-3-trifluoromethyl-pyrazol-1-yl)-acetyl]-piperidin-4-yl}-thiazol-4-yl)amide], the melting point is 179 to 181 °C and 179.2 to 181.3 °C. The pest or weed control at 200 ppm in the data set with Phytophthora infestans was not below 80%. For the same molecule, in the data set on Plasmopara viticola, the pest or weed control at 200 ppm is not below 80%.
Take `Cc1cc(C(F)(F)F)nn1CC(=O)N1CCC(c2nc(NC(=O)OC3CCCc4ccccc43)cs2)CC1` (centres unmarked) [I.g.013, (2-{1-[2-(5-methyl-3-trifluoromethyl-pyrazol-1-yl)-acetyl]-piperidin-4-yl}-thiazol-4-yl)-carbamic acid 1,2,3,4-tetrahydro-naphthalen-1-yl ester]: the pest or weed control at 200 ppm in the data set on Phytophthora infestans and in the data set with Plasmopara viticola was not below 80% in each case.
`Cc1cc(C(F)(F)F)nn1CC(=O)N1CCC(c2nc(NC(=O)Nc3ccccc3)cs2)CC1` [I.g.024, 1-(2-{1-[2-(5-methyl-3-trifluoromethyl-pyrazol-1-yl)-acetyl]-piperidin-4-yl}-thiazol-4-yl)-3-phenyl-urea] returned a melting point of 192.6 °C. Besides, the pest or weed control at 200 ppm with Phytophthora infestans is not below 80%. In the data set with Plasmopara viticola, the pest or weed control at 200 ppm is not below 80%.
Take `Cc1ccc(C)c(CC(=O)N2CCC(c3nc(NC(=O)C4CCCc5ccccc54)cs3)CC2)c1` (centres unmarked) [I.g.136, 1,2,3,4-tetrahydro-naphthalene-1-carboxylic acid (2-{1-[2-(2,5-dimethylphenyl)-acetyl]-piperidin-4-yl}-thiazol-4-yl)-amide]: in the data set on Phytophthora infestans, the pest or weed control at 200 ppm is not below 80%.
With `Cc1ccc(C)c(CS(=O)(=O)N2CCC(c3nc(NC(=O)c4ccccc4)cs3)CC2)c1` [I.g.246, N-{2-[1-(2,5-Dimethyl-phenylmethanesulfonyl)-piperidin-4-yl]-thiazol-4-yl}-benzamide], the melting point lay in the range of 173 to 175 °C. The pest or weed control at 200 ppm in the data set with Plasmopara viticola was not below 80%.
`Cc1ccccc1CC(=O)N1CCC(c2nc(NC(=O)C3CCCc4ccccc43)cs2)CC1` (centres unmarked) [I.g.386, 1,2,3,4-tetrahydro-naphthalene-1-carboxylic acid {2-[1-(2-o-tolyl-acetyl)-piperidin-4-yl]thiazol-4-yl}-amide]: the melting point was in the range of 174 to 175 °C. For the same molecule, the pest or weed control at 200 ppm with Phytophthora infestans is not below 80%. In addition, the pest or weed control at 200 ppm in the data set with Plasmopara viticola is not below 80%.
As to `Cc1cc(C(F)(F)F)nn1CC(=O)N1CCC(c2nc(NC(=O)c3cccc(F)c3O)cs2)CC1` [I.g.501, 3-fluoro-2-hydroxy-N-(2-{1-[2-(5-methyl-3-trifluoromethyl-pyrazol-1-yl)-acetyl]-piperidin-4-yl}-thiazol-4-yl)-benzamide], the pest or weed control at 200 ppm with Phytophthora infestans and in the data set on Plasmopara viticola was not below 80% in each case.
Consider `Cc1cc(C(F)(F)F)nn1CC(=O)N1CCC(c2nc(NC(=O)c3cccc(Br)c3O)cs2)CC1` [I.g.502, 3-bromo-2-hydroxy-N-(2-{1-[2-(5-methyl-3-trifluoromethyl-pyrazol-1-yl)-acetyl]-piperidin-4-yl}-thiazol-4-yl)-benzamide], for which the melting point lay in the range of 193 to 195 °C.
As to `Cc1cc(C(F)(F)F)nn1CC(=O)N1CCC(c2nc(NC(=O)c3ccccc3O)cs2)CC1` [I.g.503, 2-hydroxy-N-(2-{1-[2-(5-methyl-3-trifluoromethyl-pyrazol-1-yl)-acetyl]-piperidin-4-yl}-thiazol-4-yl)-benzamide], the pest or weed control at 200 ppm in the data set with Phytophthora infestans and in the data set with Plasmopara viticola was not below 80% in each case.
As for `Cc1ccc(S(=O)(=O)Nc2ccccc2C(=O)Nc2csc(C3CCN(C(=O)Cn4nc(C(F)(F)F)cc4C)CC3)n2)cc1` [I.g.508, N-(2-{1-[2-(5-methyl-3-trifluoromethyl-pyrazol-1-yl)-acetyl]-piperidin-4-yl}-thiazol-4-yl)-2-(toluene-4-sulfonylamino)-benzamide], the pest or weed control at 200 ppm in the data set with Phytophthora infestans and in the data set on Plasmopara viticola was not below 80% throughout.
Turning to `COc1cccc(O)c1C(=O)Nc1csc(C2CCN(C(=O)Cn3nc(C(F)(F)F)cc3C)CC2)n1` [I.g.509, 2-methoxy-6-hydroxy-N-(2-{1-[2-(5-methyl-3-trifluoromethyl-pyrazol-1-yl)-acetyl]-piperidin-4-yl}-thiazol-4-yl)-benzamide], the pest or weed control at 200 ppm in the data set with Phytophthora infestans and with Plasmopara viticola was not below 80% in each case.
For `Cc1cc(C(F)(F)F)nn1CC(=O)N1CCC(c2nc(NC(=O)c3c(O)cccc3F)cs2)CC1` [I.g.510, 2-fluoro-6-hydroxy-N-(2-{1-[2-(5-methyl-3-trifluoromethyl-pyrazol-1-yl)-acetyl]-piperidin-4-yl}-thiazol-4-yl)-benzamide], the pest or weed control at 200 ppm in the data set with Phytophthora infestans and in the data set with Plasmopara viticola was not below 80% throughout.
Turning to `COc1cccc(C(=O)Nc2csc(C3CCN(C(=O)Cn4nc(C(F)(F)F)cc4C)CC3)n2)c1O` [I.g.511, 3-methoxy-2-hydroxy-N-(2-{1-[2-(5-methyl-3-trifluoromethyl-pyrazol-1-yl)-acetyl]-piperidin-4-yl}-thiazol-4-yl)-benzamide], the pest or weed control at 200 ppm in the data set with Phytophthora infestans was not below 80%.
Same read-out and setting: next, `Cc1cc(C(F)(F)F)nn1CC(=O)N1CCC(c2nc(N(C)C(=O)C3CCCc4ccccc43)cs2)CC1` (centres unmarked) [I.h.011, 1,2,3,4-tetrahydro-naphthalene-1-carboxylic acid methyl-(2-{1-[2-(5-methyl-3-trifluoromethyl-pyrazol-1-yl)-acetyl]-piperidin-4-yl}-thiazol-4-yl)-amide]: not below 80%.
As to `Cc1cc(C(F)(F)F)nn1CC(=O)N1CCN(c2nc(NC(=O)C3CCCc4ccccc43)cs2)CC1` (centres unmarked) [I.n.011, 1,2,3,4-Tetrahydro-naphthalene-1-carboxylic acid (2-{4-[2-(5-methyl-3-trifluoromethyl-pyrazol-1-yl)acetyl]-piperazin-1-yl}-thiazol-4-yl)amide], the melting point lay in the range of 207 to 209 °C. Besides, the pest or weed control at 200 ppm in the data set with Phytophthora infestans was not below 80%. Moreover, in the data set with Plasmopara viticola, the pest or weed control at 200 ppm is not below 80%.
In the case of `Cc1cc(C(F)(F)F)nn1CC(=O)N1CCN(c2nc(NC(=O)c3ccccc3)cs2)CC1` [I.n.021, N-(2-{4-[2-(5-methyl-3-trifluoromethyl-pyrazol-1-yl)-acetyl]-piperazin-1-yl}-thiazol-4-yl)-benzamide], the pest or weed control at 200 ppm in the data set with Phytophthora infestans and in the data set on Plasmopara viticola was not below 80% each time.
